The values below come from US10561749B2, “Nuclear medicine diagnostic imaging agent” (Kyoto University, priority 2015, dated 2020).

Molecules are shown by their SMILES. pIC50: −log10 of the molar value.

Holding throughout (assay type): biochemical
Assay [1] addresses T1, EGFR tyrosine kinase (WT) (Homo sapiens, UniProt P00533).
T1 construct: purchased Promega V3831
The assay is described as follows: EGFR tyrosine kinase inhibiting activity, ADP-Glo (EGFR Kinase Enzyme System, WT). Particulars: read-out: EGFR Kinase inhibition: IC50 WT. The procedure:
(§1) Four types of EGFR Kinase Enzyme Systems, specifically, EGFR Kinase Enzyme System (Catalog No. V3831), EGFR (L858R) Kinase Enzyme System (Catalog No. V5322), EGFR (T790M) Kinase Enzyme System (Catalog No. V4506), and EGFR (T790M, L858R) Kinase Enzyme System (Catalog No. V5324) were used (all of them were manufactured by Promega).
(§2) The measurement was carried out according to the Promega protocol applications guide. That is, a buffer solution (40 mM Tris-HCl, pH 7.5, 20 mM MgCl2, 50 μM DTT and 0.1 mg/mL BSA) was used as a dilute solution. The concentration of each compound started at 20 μM (the final concentration, including 1% DMSO) with 5-fold dilutions with the buffer solution. Thus, ten concentrations of each compound were prepared. Then, 2 μL of each concentration of each compound thus obtained was added to each well of a 384-well plate. Furthermore, 4 μL (20 ng) of an EGFR Kinase […] that came with each EGFR Kinase Enzyme System was added to each well, which then was incubated at room temperature for ten minutes. Subsequently, 4 μL of mixed solution of ATP (10 μM) and Poly(Glu, Tyr) (2 μg) substrate was added to each well, which then was incubated at room temperature for one hour. Then, 10 μL of ADP-Glo™ Reagent (ADP-Glo™ Kinase Assay, Promega) was added to each well, which then was reacted at room temperature for 40 minutes. Furthermore, 20 μL of Kinase Detection Reagent (ADP-Glo™ Kinase Assay, Promega) was added to each well, which then was reacted at room temperature for one hour. […] From the data thus obtained, dose-response curves and IC50 were calculated using GraphPad Prism 5 (GraphPad Software, Inc.). In Table 1 below, WT indicates the measurement results obtained with the EGFR Kinase Enzyme System, L858R indicates the measurement results obtained with the EGFR (L858R) Kinase Enzyme System, T790M indicates the measurement results obtained with the EGFR (T790M) Kinase Enzyme System, and DM indicates the measurement results obtained with the EGFR (T790M, L858R) Kinase Enzyme System.
Background: In ADP-Glo the light output rises with the ADP produced.

In the next assay the target is T2, EGFR (L858R) (Homo sapiens, UniProt P00533, L858R).
T2 construct: purchased Promega V5322
T2 sequence (P00533 25-1210 L858R): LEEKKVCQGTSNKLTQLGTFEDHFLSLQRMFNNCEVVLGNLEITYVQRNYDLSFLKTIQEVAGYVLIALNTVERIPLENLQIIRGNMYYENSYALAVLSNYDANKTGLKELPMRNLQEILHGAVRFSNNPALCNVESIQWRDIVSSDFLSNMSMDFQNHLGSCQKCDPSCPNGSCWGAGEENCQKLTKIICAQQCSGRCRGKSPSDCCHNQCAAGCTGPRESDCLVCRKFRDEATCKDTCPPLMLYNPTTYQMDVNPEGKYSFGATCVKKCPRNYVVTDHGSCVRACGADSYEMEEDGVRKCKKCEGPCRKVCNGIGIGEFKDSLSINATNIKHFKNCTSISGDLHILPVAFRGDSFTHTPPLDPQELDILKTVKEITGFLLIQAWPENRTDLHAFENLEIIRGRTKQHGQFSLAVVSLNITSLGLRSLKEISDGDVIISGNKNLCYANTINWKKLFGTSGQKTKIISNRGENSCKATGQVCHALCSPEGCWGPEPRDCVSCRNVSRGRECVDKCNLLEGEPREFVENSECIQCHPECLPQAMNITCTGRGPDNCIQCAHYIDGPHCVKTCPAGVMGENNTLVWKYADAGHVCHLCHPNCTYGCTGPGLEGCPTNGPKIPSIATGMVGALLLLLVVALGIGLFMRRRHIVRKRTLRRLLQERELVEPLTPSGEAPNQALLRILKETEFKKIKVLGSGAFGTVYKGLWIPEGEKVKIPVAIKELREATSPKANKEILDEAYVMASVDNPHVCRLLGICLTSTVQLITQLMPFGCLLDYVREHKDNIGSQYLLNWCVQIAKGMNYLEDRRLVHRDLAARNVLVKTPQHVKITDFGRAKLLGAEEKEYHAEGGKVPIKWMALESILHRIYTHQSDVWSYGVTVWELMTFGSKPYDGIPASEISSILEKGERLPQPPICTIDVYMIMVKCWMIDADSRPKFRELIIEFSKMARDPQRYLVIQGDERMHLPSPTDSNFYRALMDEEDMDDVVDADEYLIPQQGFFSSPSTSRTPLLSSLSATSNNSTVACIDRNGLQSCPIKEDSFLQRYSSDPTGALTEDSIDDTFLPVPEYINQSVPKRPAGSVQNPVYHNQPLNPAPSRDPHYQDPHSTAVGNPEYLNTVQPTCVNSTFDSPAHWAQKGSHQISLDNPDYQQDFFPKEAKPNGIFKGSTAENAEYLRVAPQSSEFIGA
The assay is described as follows: EGFR tyrosine kinase inhibiting activity, ADP-Glo (EGFR (L858R) Kinase Enzyme System). Particulars: read-out: EGFR Kinase inhibition: IC50 L858R. The procedure: as §1, §2

The next assay addresses T3, EGFR (T790M, L858R) (Homo sapiens, UniProt P00533, L858R/T790M).
T3 construct: purchased Promega V5324
Briefly: EGFR tyrosine kinase inhibiting activity, ADP-Glo (EGFR (T790M, L858R) Kinase Enzyme System, DM). Particulars: for EGFR Kinase inhibition: IC50 DM: ATP 10 μM, max concentration 20 μM, >10: <50% inhibition at 10 μM, no active: almost no activity at 20 μM; for pIC50: read-out: EGFR Kinase inhibition: IC50 DM. The method, then: as §1, §2

The target of another assay is T4, EGFR (T790M) (Homo sapiens, UniProt P00533, T790M).
T4 construct: purchased Promega V4506
T4 sequence (P00533 25-1210 T790M): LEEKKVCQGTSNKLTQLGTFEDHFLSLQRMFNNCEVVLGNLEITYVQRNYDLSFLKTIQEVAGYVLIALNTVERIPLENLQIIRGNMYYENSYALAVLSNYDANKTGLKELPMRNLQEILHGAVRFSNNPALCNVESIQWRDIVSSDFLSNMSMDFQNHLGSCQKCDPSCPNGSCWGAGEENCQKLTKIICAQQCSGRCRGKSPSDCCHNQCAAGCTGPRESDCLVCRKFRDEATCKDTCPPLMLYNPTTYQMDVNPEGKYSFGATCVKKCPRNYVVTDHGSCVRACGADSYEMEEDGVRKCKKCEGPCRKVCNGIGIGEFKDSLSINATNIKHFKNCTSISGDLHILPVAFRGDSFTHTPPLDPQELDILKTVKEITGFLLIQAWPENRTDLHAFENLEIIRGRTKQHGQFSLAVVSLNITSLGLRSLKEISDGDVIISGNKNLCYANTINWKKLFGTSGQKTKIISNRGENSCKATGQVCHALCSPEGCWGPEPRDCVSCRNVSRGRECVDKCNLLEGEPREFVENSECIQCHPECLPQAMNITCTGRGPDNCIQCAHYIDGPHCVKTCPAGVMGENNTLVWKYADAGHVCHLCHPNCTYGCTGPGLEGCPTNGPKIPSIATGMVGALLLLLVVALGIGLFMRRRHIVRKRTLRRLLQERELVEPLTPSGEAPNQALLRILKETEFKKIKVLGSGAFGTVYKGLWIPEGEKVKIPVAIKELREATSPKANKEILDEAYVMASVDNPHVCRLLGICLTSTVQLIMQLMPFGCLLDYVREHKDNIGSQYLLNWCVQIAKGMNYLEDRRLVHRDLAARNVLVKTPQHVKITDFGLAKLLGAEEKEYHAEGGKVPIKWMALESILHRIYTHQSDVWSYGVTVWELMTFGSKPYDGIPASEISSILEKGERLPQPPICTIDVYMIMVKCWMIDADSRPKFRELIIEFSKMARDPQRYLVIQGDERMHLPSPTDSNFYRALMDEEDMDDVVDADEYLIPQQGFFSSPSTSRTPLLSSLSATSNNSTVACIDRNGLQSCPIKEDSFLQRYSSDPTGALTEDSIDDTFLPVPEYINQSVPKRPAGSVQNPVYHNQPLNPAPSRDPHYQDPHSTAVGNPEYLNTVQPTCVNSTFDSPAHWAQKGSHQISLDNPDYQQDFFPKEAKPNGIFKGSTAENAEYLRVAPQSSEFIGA
Briefly: EGFR tyrosine kinase inhibiting activity, ADP-Glo (EGFR (T790M) Kinase Enzyme System). Particulars: for EGFR Kinase inhibition: IC50 T790M: ATP 10 μM, max concentration 20 μM, >10: <50% inhibition at 10 μM, no active: almost no activity at 20 μM; for pIC50: read-out: EGFR Kinase inhibition: IC50 T790M. The procedure: as §1, §2

T3 sequence (P00533 25-1210 T790M/L858R): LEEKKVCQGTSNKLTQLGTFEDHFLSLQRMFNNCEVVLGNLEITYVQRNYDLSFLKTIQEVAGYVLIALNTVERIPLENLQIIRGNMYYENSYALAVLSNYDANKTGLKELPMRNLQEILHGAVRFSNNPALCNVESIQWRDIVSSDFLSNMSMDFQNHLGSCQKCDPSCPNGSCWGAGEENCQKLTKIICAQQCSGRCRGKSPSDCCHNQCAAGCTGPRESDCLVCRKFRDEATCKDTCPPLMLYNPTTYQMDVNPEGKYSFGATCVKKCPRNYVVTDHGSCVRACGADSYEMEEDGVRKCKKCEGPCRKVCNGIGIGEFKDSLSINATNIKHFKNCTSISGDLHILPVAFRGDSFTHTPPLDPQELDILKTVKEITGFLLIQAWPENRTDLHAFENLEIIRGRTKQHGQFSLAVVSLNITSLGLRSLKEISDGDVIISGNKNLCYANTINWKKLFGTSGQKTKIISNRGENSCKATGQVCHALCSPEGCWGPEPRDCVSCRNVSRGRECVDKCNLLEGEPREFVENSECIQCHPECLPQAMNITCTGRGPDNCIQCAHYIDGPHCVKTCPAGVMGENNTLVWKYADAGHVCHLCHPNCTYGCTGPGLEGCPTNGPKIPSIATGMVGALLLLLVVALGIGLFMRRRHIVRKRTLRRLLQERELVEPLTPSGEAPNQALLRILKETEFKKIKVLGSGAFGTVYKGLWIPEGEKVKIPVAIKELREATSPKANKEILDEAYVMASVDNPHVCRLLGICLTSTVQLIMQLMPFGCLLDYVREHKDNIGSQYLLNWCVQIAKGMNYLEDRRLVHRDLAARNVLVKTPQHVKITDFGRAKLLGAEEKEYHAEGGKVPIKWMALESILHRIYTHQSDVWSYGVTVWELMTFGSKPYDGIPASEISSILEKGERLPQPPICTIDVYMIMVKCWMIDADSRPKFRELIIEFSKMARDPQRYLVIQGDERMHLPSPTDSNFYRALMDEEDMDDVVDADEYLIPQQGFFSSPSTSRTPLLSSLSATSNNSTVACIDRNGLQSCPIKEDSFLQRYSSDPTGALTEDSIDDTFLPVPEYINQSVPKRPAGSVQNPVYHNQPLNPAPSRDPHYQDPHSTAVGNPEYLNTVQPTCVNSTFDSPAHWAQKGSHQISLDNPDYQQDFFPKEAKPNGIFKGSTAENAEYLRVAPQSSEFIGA
T1 sequence (P00533 25-1210): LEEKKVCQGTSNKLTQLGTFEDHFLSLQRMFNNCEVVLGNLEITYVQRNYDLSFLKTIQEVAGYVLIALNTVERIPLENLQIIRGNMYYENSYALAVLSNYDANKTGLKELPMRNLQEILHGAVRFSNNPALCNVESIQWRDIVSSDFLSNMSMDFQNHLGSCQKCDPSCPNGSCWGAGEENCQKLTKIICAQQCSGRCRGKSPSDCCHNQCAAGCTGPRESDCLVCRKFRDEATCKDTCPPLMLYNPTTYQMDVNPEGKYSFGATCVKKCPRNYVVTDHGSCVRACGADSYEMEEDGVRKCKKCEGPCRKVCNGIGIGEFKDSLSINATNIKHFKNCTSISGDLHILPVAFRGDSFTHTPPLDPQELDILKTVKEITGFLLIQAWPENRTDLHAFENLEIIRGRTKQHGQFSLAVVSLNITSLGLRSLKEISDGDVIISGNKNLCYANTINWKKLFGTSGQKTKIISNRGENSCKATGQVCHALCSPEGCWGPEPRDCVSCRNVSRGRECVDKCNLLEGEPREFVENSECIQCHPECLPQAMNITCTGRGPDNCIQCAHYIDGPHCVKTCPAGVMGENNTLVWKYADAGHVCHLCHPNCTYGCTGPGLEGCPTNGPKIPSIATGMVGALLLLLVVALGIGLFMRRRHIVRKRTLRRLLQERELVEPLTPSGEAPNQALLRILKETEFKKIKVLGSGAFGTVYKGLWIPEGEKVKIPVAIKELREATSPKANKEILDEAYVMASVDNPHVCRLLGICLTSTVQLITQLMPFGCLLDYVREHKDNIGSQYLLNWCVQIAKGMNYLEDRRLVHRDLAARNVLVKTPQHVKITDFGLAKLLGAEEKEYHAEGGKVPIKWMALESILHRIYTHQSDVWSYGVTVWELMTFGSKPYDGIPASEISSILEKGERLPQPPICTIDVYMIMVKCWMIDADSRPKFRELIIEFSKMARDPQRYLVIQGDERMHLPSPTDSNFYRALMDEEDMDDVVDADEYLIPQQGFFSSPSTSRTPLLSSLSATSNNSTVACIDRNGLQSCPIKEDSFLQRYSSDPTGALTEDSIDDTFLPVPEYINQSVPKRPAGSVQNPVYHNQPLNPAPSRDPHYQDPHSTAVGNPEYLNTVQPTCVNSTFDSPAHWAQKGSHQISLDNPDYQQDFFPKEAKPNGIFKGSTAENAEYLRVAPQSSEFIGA

For orientation: pIC50 means −log10 of the IC50, conventionally taken in molar units. Turning to `OC[C@@H](Nc1ncnc2sc3c(c12)CCN(CCF)C3)c1ccccc1` [P1], the pIC50 is 5.64 in assay [1] and 5.47 at EGFR (L858R). Further, the “EGFR Kinase inhibition: IC50 DM” value on EGFR (T790M, L858R) is listed as “no active”. Besides, the “EGFR Kinase inhibition: IC50 T790M” value at EGFR (T790M) is recorded as “no active”.

`O=C(/C=C/CN1CCN(CCF)CC1)N1CCc2c(sc3ncnc(N[C@H](CO)c4ccccc4)c23)C1` [P2, (S,E)-4-(4-(2-Fluoroethyl)piperazin-1-yl)-1-(4-((2-hydroxy-1phenylethyl)amino)-5,8-dihydropyrido[4′,3′:4,5]thieno[2,3-d]pyrimidin-7(6H)-yl)but-2-en-1-one]: the pIC50 is 7.36 in assay [1]; 8.05 at EGFR (L858R); < 5.00 at EGFR (T790M, L858R); 5.05 on EGFR (T790M).

On to `O=C(CN1CCN(CCF)CC1)N1CCc2c(sc3ncnc(N[C@H](CO)c4ccccc4)c23)C1` [P3, (S)-2-(4-(2-Fluoroethyl)piperazin-1-yl)-1-(4-((2-hydroxy-1phenylethyl)amino)-5,8-dihydropyrido[4′,3′:4,5]thieno[2,3-d]pyrimidin-7(6H)-yl)ethan-1-one], for which the pIC50 in assay [1] was 5.36; at EGFR (L858R), 5.57. Moreover, the “EGFR Kinase inhibition: IC50 DM” value on EGFR (T790M, L858R) is “no active”. In addition, on EGFR (T790M), the “EGFR Kinase inhibition: IC50 T790M” value was “no active”.

With `O=C(CCN1CCN(CCF)CC1)N1CCc2c(sc3ncnc(N[C@H](CO)c4ccccc4)c23)C1` [P4, (S)-3-(4-(2-Fluoroethyl)piperazin-1-yl)-1-(4-((2-hydroxy-1phenylethyl)amino)-5,8-dihydropyrido[4′,3′:4,5]thieno[2,3-d]pyrimidin-7(6H)-yl)propan-1-one], the pIC50 in assay [1] was 5.55; at EGFR (L858R) it was 5.74. The “EGFR Kinase inhibition: IC50 DM” value at EGFR (T790M, L858R) is “no active”. For the same compound, at EGFR (T790M), the “EGFR Kinase inhibition: IC50 T790M” value was “no active”.

Consider `C[C@@H](Nc1ncnc2sc3c(c12)CCN(C(=O)/C=C/CN1CCN(CCF)CC1)C3)c1ccccc1` [P5, (R,E)-4-(4-(2-Fluoroethyl)piperazin-1-yl)-1-(4-((1-phenylethyl)amino)-5,8-dihydropyrido[4′,3′:4,5]thieno[2,3-d]pyrimidin-7(6H)-yl)but-2-en-1-one], for which the pIC50 in assay [1] was 6.89; at EGFR (L858R) it was 7.57; on EGFR (T790M, L858R) it was < 5.00; on EGFR (T790M), < 5.00.

On to `O=C(/C=C/CN1CCN(CCF)CC1)N1CCc2c(sc3ncnc(O[C@@H](c4ccccc4)C(F)(F)F)c23)C1` [P6, (S,E)-4-(4-(2-Fluoroethyl)piperazin-1-yl)-1-(4-(2,2,2-trifluoro-1-phenylethoxy)-5,8-dihydropyrido[4′,3′:4,5]thieno[2,3-d]pyrimidin-7 (6H)-yl)but-2-en-1-one], for which the pIC50 in assay [1] was 6.05; at EGFR (L858R) it was 6.47; at EGFR (T790M, L858R), < 5.00. Moreover, the “EGFR Kinase inhibition: IC50 T790M” value on EGFR (T790M) is “no active”.

As to `COC[C@@H](Nc1ncnc2sc3c(c12)CCN(C(=O)/C=C/CN1CCN(CCF)CC1)C3)c1ccccc1` [P7], the pIC50 in assay [1] is 6.43; at EGFR (L858R), 7.29. For the same compound, the “EGFR Kinase inhibition: IC50 DM” value at EGFR (T790M, L858R) is reported as “no active”. Also, the “EGFR Kinase inhibition: IC50 T790M” value on EGFR (T790M) was “no active”.

`O=C(/C=C/CN1CCN(CCF)CC1)N1CCc2c(sc3ncnc(Nc4cccc(Br)c4)c23)C1` [P8]: the pIC50 is 5.37 in assay [1] and 5.86 at EGFR (L858R). The “EGFR Kinase inhibition: IC50 DM” value on EGFR (T790M, L858R) was “no active”. The “EGFR Kinase inhibition: IC50 T790M” value at EGFR (T790M) is “no active”.

As for `O=C(/C=C/CN1CCN(CCOCCF)CC1)N1CCc2c(sc3ncnc(N[C@H](CO)c4ccccc4)c23)C1` [P9], the pIC50 in assay [1] was 7.17; on EGFR (L858R), 7.51; on EGFR (T790M, L858R) it was < 5.00; on EGFR (T790M) it was < 5.00.

Turning to `O=C(/C=C/CN1CCN(CCOCCOCCOCCF)CC1)N1CCc2c(sc3ncnc(N[C@H](CO)c4ccccc4)c23)C1` [P10], the pIC50 is 7.05 in assay [1]; 7.28 on EGFR (L858R); < 5.00 at EGFR (T790M, L858R); < 5.00 at EGFR (T790M).
